Assay: Monitoring cerebral blood flow in an adult human by DOT after an indocyanine green bolus
Assay type: in vivo
Source text: A 100 mW, 808 nm laser diode coupled to a 1 mm diameter fused silica fiber was used to deliver light to an adult human head. Four diode detectors were coupled to the scalp via 3 mm diameter plastic fibers. The collecting fibers were positioned 1, 2, 3, and 4 cm from the emitting fiber. These four separations were chosen to discriminate between scalp signals and […]. Measurements made at 1 and 2 cm separations were sensitive to changes in the optical properties of only the skull and scalp. On the other hand, measurements made at 3 and 4 cm separations were sensitive to changes in the optical properties of the brain, skull, and scalp. The remitted intensity at the four positions was sampled at 4 Hz. Baseline data was collected for 10 seconds, followed by the bolus injection. The bolus consisted of a 2 ml saline solution of 40 mg of indocyanine green injected into a vein in the arm of the volunteer. This injection was immediately followed by a 10 ml saline flush.
The data is summarized in the graph of FIG. 15, showing the attenuation of the optical signal caused by passing of the bolus of indocyanine green through the brain of the adult human volunteer. […] The small increases in each signal at about 34 seconds resulted from the re-circulation of the indocyanine green bolus.

CC1(C)C(/C=C/C=C/C=C/C=C2\N(CCCCS(=O)(=O)O)c3ccc4ccccc4c3C2(C)C)=[N+](CCCCS(=O)(=O)[O-])c2ccc3ccccc3c21 [indocyanine green]
delay of the drop in the signals relative to 3 and 4 cm separations (1 and 2 cm optode separations (scalp and skull only)): about 2 seconds | time following injection of the dye bolus at which the signal dropped significantly (3 and 4 cm optode separations, 40 mg in 2 ml saline i.v. in the arm, 808 nm): 20 s | time of small signal increases from re-circulation of the bolus (each signal, all separations): about 34 seconds | concentration of second passage bolus, times smaller than the first passage bolus (re-circulation): about 10 times
